Article PMC8344252, “Carbonic anhydrase activation profile of indole-based derivatives” (Journal of Enzyme Inhibition and Medicinal Chemistry, 2021)

Tests used:
[1] = system: C20 human microglial cell line; assay: Cell viability (MTS) assay; format: cell-based; conditions: 24 h; for Cell viability of C20 cells: highest tested concentration (10 µM), vs vehicle (DMSO) control
Protocol: (§1) All materials for cell culturing were obtained by Corning, New York, USA, and all used reagents were purchased by Sigma-Aldrich (Saint Louis, MO, USA). The human microglial cell line C20, originally generated by David Alvarez-Carbonell et al.[52], was grown in DMEM-F12 medium supplemented with 10% of FBS, 100 U/mL penicillin, 0.1 mg/mL streptomycin, and neomycin (600 μg/mL), as a selector of the immortalised telomerase-expressing cells. Cells were kept at 37 °C under a humidified atmosphere with […] and 5% CO2. Viable cells (identified by counting trypan-blue-excluding cellular elements) were plated at a density of 100,000 cells each well in a 24-well plate. To evaluate the ability of target compounds to modulate the cellular viability and brain-derived neurotrophic factor (BDNF) release, C20 cells were challenged with CAAs.
C20 cells were seeded in 96-well microplates at a density of 5000 cells/well and maintained in complete culture media. The day after the seed, cells were treated with CAAs 7, 8, and 9 for 24 h (1 and 10 µM). The cell viability was determined using the [3–(4,5-dimethylthiazol-2-yl)-5–(3-carboxymethoxyphenol)-2–(4-sulfophenyl)-2H-tetrazolium, inner salt] (MTS) assay according to the manufacturer’s instructions (Promega, Milano, Italy). This tetrazolium dye can be reduced by the metabolic reducing agents NADH and NADPH to a water-soluble formazan salt. The amount of formazan produced is considered to be a marker of cell viability. The MTS reagent was added to treated C20 cells and the colorimetric conversion of formazane was quantified after 1 h by measuring the absorbance at 490 nm (EnSightTM multimode plate reader, equipped with Kaleido Data Acquisition and Analysis Software).

[2] = target: hCA VA (Homo sapiens, UniProt P35218); assay: CA activation, stopped-flow CO2 hydrase assay; format: biochemical; conditions: for KA ratio [hCA VA/hCA VII]: KA ratio for the indicated enzyme isoforms, value in square brackets; for KA hCA VA: activation constant, mean from 3 assays, errors ±5–10%; for hCA VA activation, judged in words: text comment on KA values
Sequence of hCA VA (P35218 39-305): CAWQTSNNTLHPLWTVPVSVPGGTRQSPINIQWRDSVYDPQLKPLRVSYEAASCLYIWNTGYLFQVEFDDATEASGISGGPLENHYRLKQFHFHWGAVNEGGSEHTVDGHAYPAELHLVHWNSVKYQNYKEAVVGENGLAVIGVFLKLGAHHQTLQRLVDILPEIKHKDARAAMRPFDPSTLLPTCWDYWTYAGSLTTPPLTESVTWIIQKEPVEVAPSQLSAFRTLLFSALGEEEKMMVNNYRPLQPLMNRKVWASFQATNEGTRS
Protocol: (§2) A stopped-flow method[38] has been used for assaying the CA catalysed CO2 hydration activity with Phenol red as indicator, working at the absorbance maximum of 557 nm, following the initial rates of the CA-catalysed CO2 hydration reaction for 10–100 s. For each activator, at least six traces of the initial 5–10% of the reaction have been used for determining the initial velocity. The uncatalyzed rates were determined in the same manner and subtracted from the total observed rates. Stock solutions of activator (0.1 mM) were prepared in distilled-deionized water and dilutions up to 0.1 nM were done thereafter with the assay buffer. The activation constant (KA), defined similarly with the inhibition constant (KI), was obtained by considering the classical Michaelis–Menten equation (Equation (3), which has been fitted by nonlinear least squares by using PRISM 3: v=vmax/{1+KM/[S](1+[A]f/KA)} (3) [drawing 4] where [A]f is the free concentration of activator.
(§3) Working at substrate concentrations considerably lower than KM ([S]≪KM), and considering that [A]f can be represented in the form of the total concentration of the enzyme ([E]t) and activator ([A]t), the obtained competitive steady-state equation for determining the activation constant is given by Equation 4: v=v0KA/{KA+[A]t–0.5{([A]t+[E]t+ KA)–([A]t+[E]t+ KA)^2–4[A]t[E]t^1/2}} (4) [drawing 5] where v0 represents the initial velocity of the enzyme-catalysed reaction in the absence of an activator[39–42]. Enzyme concentrations in the assay system were in the range of 6.5–12.0 nM.

[3] = target: hCA I (Homo sapiens, UniProt P00915); assay: CA activation, stopped-flow CO2 hydrase assay; format: biochemical; conditions: activation constant; mean from 3 assays, errors ±5–10%
Sequence of hCA I (P00915 whole entry): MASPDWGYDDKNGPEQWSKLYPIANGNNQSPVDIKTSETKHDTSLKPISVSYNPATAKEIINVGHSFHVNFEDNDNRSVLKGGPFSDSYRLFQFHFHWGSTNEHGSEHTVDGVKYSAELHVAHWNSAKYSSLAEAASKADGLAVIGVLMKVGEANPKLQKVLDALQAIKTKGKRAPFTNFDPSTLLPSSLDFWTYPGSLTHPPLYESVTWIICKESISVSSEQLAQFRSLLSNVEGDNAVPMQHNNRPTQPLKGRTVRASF
Protocol: as §2, §3

[4] = target: hCA II (Homo sapiens, UniProt P00918); assay: CA activation, stopped-flow CO2 hydrase assay; format: biochemical; conditions: for KA ratio [hCA II/hCA VII]: KA ratio for the indicated enzyme isoforms, value in square brackets; for KA hCA II: activation constant, mean from 3 assays, errors ±5–10%
Protocol: as §2, §3

[5] = target: hCA VII (Homo sapiens, UniProt P43166); assay: CA activation, stopped-flow CO2 hydrase assay; format: biochemical; conditions: activation constant; mean from 3 assays, errors ±5–10%
Sequence of hCA VII (P43166 whole entry): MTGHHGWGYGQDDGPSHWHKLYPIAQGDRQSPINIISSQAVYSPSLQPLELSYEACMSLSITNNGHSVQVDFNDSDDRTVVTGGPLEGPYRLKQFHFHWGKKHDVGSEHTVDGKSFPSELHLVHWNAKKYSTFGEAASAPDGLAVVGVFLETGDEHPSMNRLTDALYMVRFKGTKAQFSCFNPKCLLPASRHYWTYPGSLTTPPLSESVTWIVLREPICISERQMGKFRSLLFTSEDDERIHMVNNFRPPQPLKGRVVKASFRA
Protocol: as §2, §3

[6] = system: BDNF release from C20 human microglial cells; assay: BDNF enzyme-linked immunosorbent assay on conditioned medium; format: cell-based; conditions: 10 µM, 2 h treatment, medium collected after 24 h, ELISA, normalised on crystal violet
Protocol: as §1, with “To evaluate the ability of target compounds to modulate the cellular viability and brain-derived neurotrophic factor (BDNF) release, C20 cells were challenged with CAAs.” left out
C20 cells were seeded in 24-well microplates at a density of 100,000 cells/well and maintained in complete culture media. […] At the end of the 24 h, the levels of BDNF were measured in the C20 conditioned medium using an enzyme-linked immunosorbent assay (ELISA) Kit (SEA011Mi 96 Tests, Cloude-Clone Corp., CCC, USA), accordingly to manufacture instructions. […] The enzyme-substrate reaction was terminated by the addition of sulphuric acid solution and the colour change was measured spectrophotometrically at a wavelength of 450 nm ± 10 nm. The concentration of BDNF in the samples was then determined by comparing the O.D. of the samples to the standard curve. […]

Structure (SMILES)	Cell viability of C20 cells [1]	KA ratio [hCA VA/hCA VII] [2]	KA hCA VA [2] [µM]	hCA VA activation, judged in words [2]	KA hCA I [3] [µM]	KA ratio [hCA II/hCA VII] [4]	KA hCA II [4] [µM]	KA hCA VII [5] [µM]	melting point [°C]	Cytotoxic activity on C20 cells ([1]; 1 and 10 µM, any of the tested concentrations)	BDNF levels in medium of C20 cells [6]
CCOC(=O)c1cn(Cc2ccccc2)c2ccc(OCCCN(C)C)cc12 [Compound 8, Ethyl 5-(3-(dimethylamino)propoxy)-1-benzyl-1H-indole-3-carboxylate]	slight, although not statistically significant, reduction in cell viability	8.3	59.8	poor activity	69.1	> 13.9	> 100	7.2	58 to 60	–	–
CN(C)CCCOc1ccc2c(c1)c(C(=O)C(=O)NCCCO)cn2Cc1ccccc1 [Compound 3, 2-(5-(3-(Dimethylamino)propoxy)-1-benzyl-1H-indol-3-yl)-N-(3-hydroxypropyl)glyoxamide]	–	4.8	50.9	poor activity	> 100	> 9.4	> 100	10.6	111 to 113	–	–
CN(C)CCCNC(=O)C(=O)c1cn(Cc2ccccc2)c2ccc(OCCO)cc12 [Compound 1, 2-(5-(2-Hydroxyethoxy)-1-benzyl-1H-indol-3-yl)-N-(3-(dimethylamino)propyl)glyoxylamide]	–	2.3	25.0	–	> 100	> 9.3	> 100	10.8	–	–	–
CCN(CC)CCNC(=O)C(=O)c1cn(Cc2ccccc2)c2ccc(OCCO)cc12 [Compound 2, 2-(5-(2-Hydroxyethoxy)-1-benzyl-1H-indol-3-yl)-N-(2-(diethylamino)ethyl)glyoxylamide]	–	2.9	28.7	–	88.9	> 10.0	> 100	10.0	–	–	–
CN(C)CCOc1ccc2c(c1)c(C(=O)NCCO)cn2Cc1ccccc1 [Compound 6, 5-(2-(Dimethylamino)ethoxy)-1-benzyl-N-(2-hydroxyethyl)-1H-indole-3-carboxamide]	–	2.5	26.8	–	> 100	> 9.3	> 100	10.7	–	–	–
CCOC(=O)c1cn(Cc2ccccc2)c2ccc(OCCN(C)C)cc12 [Compound 9, Ethyl 5-(2-(dimethylamino)ethoxy)-1-benzyl-1H-indole-3-carboxylate]	slight, although not statistically significant, reduction in cell viability	3.5	29.1	–	> 100	> 12.2	> 100	8.2	69 to 71	–	–
CCN(CC)CCOc1ccc2c(c1)c(C(=O)C(=O)NCCO)cn2Cc1ccccc1 [Compound 4, 2-(5-(2-(Diethylamino)ethoxy)-1-benzyl-1H-indol-3-yl)-N-(2-hydroxyethyl)glyoxamide]	–	3.8	34.4	–	> 100	> 11.0	> 100	9.1	116 to 118	–	–
NCCc1c[nH]cn1 [Histamine, reference compound]	–	–	0.010	–	2.1	–	125	37.5	–	–	–
CN(C)CCCOc1ccc2c(c1)c(C(=O)NCCO)cn2Cc1ccccc1 [Compound 5, 5-(3-(Dimethylamino)propoxy)-1-benzyl-N-(2-hydroxyethyl)-1H-indole-3-carboxamide]	–	2.7	28.0	–	> 100	> 9.6	> 100	10.4	–	–	–
CCN(CC)CCOc1ccc2c(c1)c(C(=O)NCc1ccccc1)cn2Cc1ccccc1 [Compound 7, 5-(2-(Diethylamino)ethoxy)-N,1-dibenzyl-1H-indole-3-carboxamide]	a little increase in cell viability	3.2	24.4	–	> 100	> 13.3	> 100	7.5	57 to 59	did not exhibit cytotoxic activity	significant increase in BDNF levels
